Consider 46 compounds from EP1724268A1, “COMPOUND HAVING TGF-BETA INHIBITORY ACTIVITY AND PHARMACEUTICAL COMPOSITION CONTAINING SAME” (KIRIN BEER KABUSHIKI KAISHA, priority 2004, dated 2005).

For this assay, the system named is TGFβ signal. The assay can be described thus: TGFβ signal inhibitory activity, (SBE)4-Luc reporter in A549 cells (Test Examples 1A and 1B). The following applies: Homo sapiens. Type of assay: cell-based, human. Put shortly:
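Compounds at 3 µM and 10 µM (some 1 µM) were added with 2 ng/ml TGFβ-1 to A549 cells stably expressing an SBE-driven luciferase, then cultured 4 hr. Chemiluminescent luciferase signal gave % inhibition versus TGFβ-alone and no-TGFβ controls.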

Setting [1] is: A549, 3 µM, compounds of Reference Examples (Test Example 1B), read-out: TGFβ inhibition rate, %.
Where [2] appears, read: A549, 10 µM, compounds of Reference Examples (Test Example 1B), read-out: TGFβ inhibition rate, %.
[3] abbreviates: A549, test compound 3 µM, Reference Examples, Table 1B, read-out: TGFβ inhibition rate, %.
Where [4] appears, read: A549, test compound 10 µM, Reference Examples, Table 1B, read-out: TGFβ inhibition rate, %.
Where [5] appears, read: A549, test compound 3 µM, TGFβ-1 2 ng/ml, 4 hr, Table 1A, read-out: TGFβ inhibition rate, %.
Where [6] appears, read: A549, test compound 10 µM, TGFβ-1 2 ng/ml, 4 hr, Table 1A, read-out: TGFβ inhibition rate, %.

Each structure is given as a SMILES string. Read-outs that look alike come from different tables or passages of the source.

What is called inhibition is the share of the control response that was lost under treatment. As for `CCOC(=O)/C=C/c1cc2nccc(Oc3cc4ccccc4nc3C)c2cc1OC` [Compound r413], under setting [1], the inhibition at 3 µM was 31%. Further, under setting [2], the inhibition at 10 µM was 76%. For the compound `COc1cc2c(Oc3ccc(C)cc3C(=O)c3ccccc3)ccnc2cc1OCCCN1CCOCC1` [r139], under setting [3], the inhibition at 3 µM is 99%. The inhibition at 10 µM under setting [4] is 100%. For `COc1cc2c(Oc3cc4ccccc4nc3C)ccnc2cc1OCCN1CCOCC1` [Compound r366], the inhibition at 10 µM (A549, read-out: TGFβ inhibition rate, %) amounted to 100%.

As to `COc1cc2c(Oc3cc(C)c(C)nc3-c3ccc(C)cn3)ccnc2cc1OCCNCCO` [r469], under setting [1], the inhibition at 3 µM stood at 100%. `CCOC(=O)c1ccccc1Oc1ccnc2cc(OC)c(OC)cc12` [Compound r80]: the inhibition at 3 µM under setting [3] amounted to 62%. Further, the inhibition at 10 µM under setting [4] turned out to be 95%. As to `Brc1ccc(-c2nc3ncccc3cc2Oc2ccnc3ccccc23)cc1` [Compound 82, 2-(4-Bromo-phenyl)-3-(quinolin-4-yloxy)-[1,8]naphthyridine], the inhibition at 3 µM under setting [5] is 25%. Besides, under setting [6], the inhibition at 10 µM is 67%. For `COc1cc2nccc(Oc3cc4ccccc4nc3I)c2cc1OC` [r282], the inhibition at 3 µM under setting [1] worked out at 96%. The inhibition at 10 µM under setting [2] amounted to 100%. The matching figures for `COc1cc2c(Oc3cc4ccccc4nc3C)ccnc2cc1OCCCN1CCCCC1` [Compound r378]: 100% and 100%. The matching figures for `COc1cc2c(Oc3cc4ccccc4nc3C)ccnc2cc1OCCCN1CCOCC1` [Compound r379]: 100% and 100%. The matching figures for `COc1cc2c(Oc3cc4ccccc4nc3C)ccnc2cc1OCCN1CCC(O)CC1` [Compound r364]: 100% and 100%. For the compound `Fc1cc2nccc(Oc3cc4cccnc4nc3-c3ccccc3)c2c(F)c1F` [Compound 102, 2-Phenyl-3-(5,6,7-trifluoro-quinolin-4-yloxy)-[1,8]naphthyridine], the inhibition at 3 µM under setting [5] was found to be 45%. Moreover, the inhibition at 10 µM under setting [6] was determined as 92%. As for `Cc1ccc(-c2nc(C)c(C)cc2Oc2ccnc3ccccc23)nc1` [Compound r431], the inhibition at 3 µM under setting [1] turned out to be 97%. The inhibition at 10 µM under setting [2] came out at 99%.

Turning to `CCCOC(=O)c1cc2ccccc2cc1Oc1ccnc2cc(OCCN3CCOCC3)c(OC)cc12` [Compound r323], the inhibition at 3 µM under setting [1] is 89%. The inhibition at 10 µM under setting [2] amounted to 100%. On the same counts, the results for `COc1ccc(Oc2ccnc3cc(OC)c(OC)cc23)c(C(O)Cc2ccccn2)c1` (stereo not shown) [r166] are 24% and 67%. Consider `COc1cc2nccc(Oc3ccc(C)nc3I)c2cc1OC` [r116], for which the inhibition at 3 µM under setting [3] was 99%. For the same compound, the inhibition at 10 µM under setting [4] was 100%.

Turning to `COc1cc2c(Oc3cc(C)c(C)nc3-c3cccc(C)n3)ccnc2cc1OCCCO` [Compound r447], under setting [1], the inhibition at 3 µM is 94%. Moreover, the inhibition at 10 µM under setting [2] was found to be 100%.

For the compound `COc1cc2nccc(Oc3ccc(C)nc3-c3cn[nH]c3)c2cc1OC` [r434], the inhibition at 3 µM under setting [1] came out at 100%. Besides, the inhibition at 10 µM under setting [2] amounted to 100%. Regarding `COc1cc2nccc(Oc3cc(C)c(C)nc3-c3nc(C)c(C)s3)c2cc1OC` [Compound r260, 4-[2-(4,5-Dimethylthiazol-2-yl)-5,6-dimethyl-pyridin-3-yloxy]-6,7-dimethoxy-quinoline], the inhibition at 3 µM under setting [1] was 96%. Under setting [2], the inhibition at 10 µM is 100%. On the same counts, the results for `CCc1nc2ccncc2cc1Oc1ccnc2cc(OC)c(OC)cc12` [r424] are 28% and 79%. For the compound `COc1cc2c(Oc3cc4ccccc4nc3C(C)=O)ccnc2cc1OCC(CO)CO` [Compound r396], the inhibition at 3 µM under setting [1] is 96%. In the case of `Cc1cc(Oc2ccnc3ccc(F)cc23)c(-c2ccccn2)nc1C` [Compound 103, 3-(6-Fluoro-quinolin-4-yloxy)-5,6-dimethyl-[2,2']bipyridine], under setting [5], the inhibition at 3 µM was 99%. The inhibition at 10 µM under setting [6] came to 100%.

As to `CCc1ccc(Oc2ccnc3ccc(OCCNS(C)(=O)=O)cc23)c(-c2ncccn2)n1` [Compound 203, N-{2-[4-(6-Ethyl-2-pyrimidin-2-yl-pyridin-3-yloxy)-quinolin-6-yloxy]-ethyl}-methanesulfonic acid amide], under setting [5], the inhibition at 3 µM was determined as 79%. Take `COc1cc2c(Oc3cc(C)c(C)nc3-c3nc(C)c(C)s3)ccnc2cc1O` [Compound r455]: the inhibition at 3 µM under setting [1] is 76%. The inhibition at 10 µM under setting [2] came to 99%. With `COc1cc2c(Oc3cc(C)c(C)nc3-c3ccccc3)ccnc2cc1OCC(O)CO` (stereo not shown) [Compound r335], the inhibition at 3 µM under setting [1] was 100%. Consider `CCCCC(CC)COC(=O)c1ccccc1Oc1ccnc2cc(OC)c(OC)cc12` (stereo not shown) [Compound r101], for which, under setting [3], the inhibition at 3 µM was determined as 0%. The inhibition at 10 µM under setting [4] was 64%. In the case of `COc1cc2c(Oc3cc(C)c(C)nc3-c3cccc(C)n3)ccnc2cc1OCCCl` [Compound r465], the inhibition at 3 µM under setting [1] was 98%. For the same compound, the inhibition at 10 µM under setting [2] was 100%.

In the case of `COc1cc2nccc(Oc3ccc4oc(=O)cc(C)c4c3)c2cc1OC` [r306], the inhibition at 3 µM under setting [1] stood at 20%. Under setting [2], the inhibition at 10 µM came out at 53%. As for `COc1cc2ncnc(Oc3cc(C)c(C)nc3-c3ccccn3)c2cc1OC` [Compound 27, 4-(5,6-Dimethyl-[2,2']bipyridin-3-yloxy)-6,7-dimethoxy-quinazoline], where the note is “A549, test compound 1 µM, TGFβ-1 2 ng/ml, 4 hr, Table 1A, read-out: TGFβ inhibition rate, %”, the inhibition at 1 µM was 89%. In addition, the inhibition at 3 µM under setting [5] came to 100%. Take `COc1cc2c(Oc3ccc(C)cc3C(=O)c3ccccc3)ccnc2cc1OCCNCCO` [r124]: the inhibition at 3 µM under setting [3] amounted to 99%. For the same compound, the inhibition at 10 µM under setting [4] came out at 100%. Turning to `COc1cc2nccc(Oc3cc(C)c(Cl)cc3C(C)=O)c2cc1OC` [Compound r37], under setting [3], the inhibition at 3 µM worked out at 94%. Moreover, under setting [4], the inhibition at 10 µM worked out at 100%.

`COc1cc2c(Oc3cc(C)c(C)nc3-c3ccccc3)ccnc2cc1OCc1ccccc1` [Compound r331]: the inhibition at 3 µM under setting [1] was 73%. The inhibition at 10 µM under setting [2] stood at 90%. The matching figures for `COc1cc2c(Oc3cc4ccccc4nc3C)ccnc2cc1OCC(N)=O` [Compound r370]: 85% and 99%.

With `COc1cc2nccc(Oc3ccc(C)nc3-c3cccnc3)c2cc1OC` [Compound r262], the inhibition at 3 µM under setting [1] worked out at 91%. For the same compound, under setting [2], the inhibition at 10 µM is 100%.

Regarding `COc1cc2c(Oc3cc4cccnc4nc3C)ccnc2cc1OCC(O)CO` (stereo not shown) [Compound r403], under setting [1], the inhibition at 3 µM turned out to be 27%. Moreover, under setting [2], the inhibition at 10 µM was 66%. On the same counts, the results for `COc1cc2nccc(Oc3cnc4ccccc4c3)c2cc1OC` [r275] are 45% and 90%. The matching figures for `CCOC(=O)C(Oc1cc2nccc(Oc3cc4ccccc4nc3C)c2cc1OC)C(=O)OCC` [Compound r373]: 48% and 86%.

Regarding `Cc1ccc(Oc2ccnc3ccc(OCC(C)(C)CO)cc23)c(-c2ncccn2)n1` [Compound 215, 2,2-Dimethyl-3-[4-(6-methyl-2-pyrimidin-2-yl-pyridin-3-yloxy)-quinolin-6-yloxy]-propan-1-ol], the inhibition at 3 µM under setting [5] was found to be 79%. As to `COc1cc2nccc(Oc3cc4cccnc4nc3-c3csc4ccccc34)c2cc1OC` [Compound 91, 2-Benzo[b]thiophen-3-yl-3-(6,7-dimethoxy-quinolin-4-yloxy)-[1,8]naphthyridine], the inhibition at 3 µM under setting [5] was determined as 97%. Moreover, the inhibition at 10 µM under setting [6] came out at 100%.

Regarding `Cc1cc(Oc2ccnc3ccc(-c4ccccc4N)cc23)c(-c2ccccn2)nc1C` [Compound 9, 2-[4-(5,6-Dimethyl-[2,2']bipyridin-3-yloxy)-quinolin-6-yl]-phenylamine], the inhibition at 3 µM under setting [5] was found to be 87%. For the same compound, under setting [6], the inhibition at 10 µM was 100%.

On to `COc1cc2ncnc(Oc3cc(C)c(C)nc3-c3cccc(C)n3)c2cc1OC` [Compound 41, 6,7-Dimethoxy-4-(5,6,6'-trimethyl-[2,2']bipyridin-3-yloxy)-quinazoline], for which the inhibition at 3 µM under setting [5] turned out to be 66%. Moreover, the inhibition at 10 µM under setting [6] worked out at 98%. `COc1cc2c(Oc3cc4ccccc4nc3C(C)=O)ccnc2cc1OCCN1CCCC(O)C1` (stereo not shown) [Compound r393]: under setting [1], the inhibition at 3 µM was determined as 100%. On to `Cc1cc(Oc2ccnc3ccc(-c4ccccc4)cc23)c(-c2ccccn2)nc1C` [Compound 5, 5,6-Dimethyl-3-(6-phenyl-quinolin-4-yloxy)-[2,2']bipyridine], for which the inhibition at 3 µM under setting [5] was found to be 79%. Moreover, the inhibition at 10 µM under setting [6] came out at 100%. On to `COc1cc2nccc(Oc3ccc(C)cc3C(=O)C3CCCCC3)c2cc1OC` [Compound r59], for which the inhibition at 3 µM under setting [3] came to 65%. In addition, the inhibition at 10 µM under setting [4] is 99%. With `COc1cc2nccc(Oc3cc4cccnc4nc3-c3ccccc3)c2cc1C(=O)NCc1ccccc1` [Compound 65, 7-Methoxy-4-(2-phenyl-[1,8]naphthyridin-3-yloxy)-quinoline-6-carboxylate benzylamide], under setting [5], the inhibition at 3 µM was 97%. Also, the inhibition at 10 µM under setting [6] stood at 100%.

With `CCOc1ccc(Oc2ccnc3cc(OC)c(OC)cc23)c(C(C)=O)c1` [Compound r178, 1-[2-(6,7-Dimethoxy-quinolin-4-yloxy)-5-ethoxy-phenyl]-ethanone], the inhibition at 3 µM under setting [1] came to 66%. Also, the inhibition at 10 µM under setting [2] came to 97%. For `CCN(CC)CC(O)COc1cc2nccc(Oc3ccc(C)cc3C(=O)c3ccccc3)c2cc1OC` (stereo not shown) [r153], under setting [3], the inhibition at 3 µM turned out to be 100%. The inhibition at 10 µM under setting [4] was determined as 100%.
